Data as given in patent US11058705B2, “Drug formulations” (Astex Pharmaceuticals, Inc., priority 2011, dated 2021).
In brackets after ≈: the same amount, converted by molar mass. Like-named read-outs stand apart in the source and are kept apart here. Values belong to the compound of their own block, whether it stands above or below them.

Key:
DNA methylation = test: Cell-based GFP assay for reactivation of silenced GFP transgene (demethylating activity); settings: for GFP Expression Level: three days, decitabine 1 μM or test compound 30-50 μM, fraction of viable cells expressing GFP; for EC50: read-out: GFP50
Protocol: The demethylating activity of compounds of the invention was tested in a cell-based green fluorescent protein (GFP) assay. In the assay, a decrease in methylation resulting from exposure to a methylation inhibitor led to GFP expression, and was readily scored.
The CMV-EE210 cell line containing the epigenetically silenced GFP transgene was used to assay for reactivation of GFP expression by flow cytometry. CMV-EE210 was made by transfecting NIH 3T3 cells with the pTR-UF/UF1/UF2 plasmid, which contained pBS(+) (Stratagene, Inc.) with a cytomegalovirus (CMV) promoter driving a humanized GFP gene adapted for expression in mammalian cells. After transfection, high-level GFP expressing cells were initially selected by FACS analysis and sorting using a MoFlo cytometer (Cytomation, Inc.).
Decitabine, a potent inhibitor of mammalian DNMT 1, was used as a positive control. […] Cells were then seeded to 30% confluence (˜5000 cell/well) in a 96-well plate containing the test compounds, and grown for three days in at 37° C. in 5% CO2.
The plates were examined under a fluorescent microscope using a 450-490 excitation filter (13 filter cube, Leica, Deerfield Ill.). Wells were scored g1 positive, g2 positive, or g3 if GFP was expressed in 10%, 30%, >75% of viable cells, respectively.
Table 1 provides the results of the test for decitabine and the test compounds as DNA methylation inhibitors. GFP50 is the concentration of an inhibitor at which the Green Fluorescent Protein (GFP) expression level is reduced from g3 to g1/2.

[1] = Solubility in formulation solvent and in water; type: physicochemical; settings: organic solvent or mixture; substantially anhydrous solvent of the formulations of the invention
From the text: The good chemical stability taken together with the excellent solubility identified the glycol/glycerin/ethanol (65:25:10) system as a formulation for use in animal experiments.

[2] = Stability in solvent formulations by HPLC; type: physicochemical; settings: for % decomposition per hour / Percent compound detected: sodium salt
Protocol: The stability of a compound of the invention in various formulations under various storage conditions was investigated. Stability was determined by HPLC at the designated time intervals.

LINE-1 DNA methylation = LINE-1 DNA methylation in blood samples, repeat dose study; type: in vivo, cynomolgus monkeys; settings: until day 22, p<0.05 versus level prior to initial dosing
Protocol: In a repeat dose study, monkeys were dosed 3× weekly subcutaneously (3 mg/kg). […] (FIGS. 1 and 2.) Pharmacodynamic properties (not shown) were monitored and were acceptable. Blood samples were drawn periodically to assay LINE-1 DNA methylation.

[3] = concentration at which GFP expression level is reduced from g3 to g1/2, CMV-EE210 cells

EC50 (DNA methylation; [3]): 400 nM | solubility [1]: 130 to 150 mg/mL (≈ 233 to 269 mM) | Stability in anhydrous DMSO ([2]; anhydrous DMSO): stable | Improvement in stability ([2]; combined effects of cooling plus addition of ethanol to the propylene glycol/glycerin system): 66 fold | Improvement in stability ([2]; propylene glycol/glycerin/ethanol (65:25:10), changing from warmer to colder storage conditions): 40 fold | % decomposition per hour ([2]; DMSO/water (1:1, w/w), 25° C./60% relative humidity): 0.72 | Percent compound detected ([2]; DMSO/water (1:1, w/w), 25° C./60% relative humidity, 5 hours): 90.1% | Percent compound detected ([2]; DMSO/water (1:1, w/w), 25° C./60% relative humidity, time point 0): 93.7% | % decomposition per hour ([2]; DMSO/water (3:1, w/w), 25° C./60% relative humidity): 0.10 | Percent compound detected ([2]; DMSO/water (3:1, w/w), 25° C./60% relative humidity, 24 hours): 94.2% | Percent compound detected ([2]; DMSO/water (3:1, w/w), 25° C./60% relative humidity, time point 0): 96.6% | % decomposition per hour ([2]; propylene glycol/glycerin (70:30, v/v), room temperature): 0.021 | Percent compound detected ([2]; propylene glycol/glycerin (70:30, v/v), room temperature, 24 hours): 96.3% | Percent compound detected ([2]; propylene glycol/glycerin (70:30, v/v), room temperature, time point 0): 96.8% | % decomposition per hour ([2]; propylene glycol/glycerin/ethanol (65:25:10, w/w/w), 2-8° C.): 0.00032 | Percent compound detected ([2]; propylene glycol/glycerin/ethanol (65:25:10, w/w/w), 2-8° C., 3 months): 95.1% | Percent compound detected ([2]; propylene glycol/glycerin/ethanol (65:25:10, w/w/w), 2-8° C., time point 0): 95.8% | % decomposition per hour ([2]; propylene glycol/glycerin/ethanol (65:25:10, w/w/w), 25° C./60% relative humidity): 0.013 | Percent compound detected ([2]; propylene glycol/glycerin/ethanol (65:25:10, w/w/w), 25° C./60% relative humidity, 3 months): 67.6% | Percent compound detected ([2]; propylene glycol/glycerin/ethanol (65:25:10, w/w/w), 25° C./60% relative humidity, time point 0): 95.8% | % decomposition per hour ([2]; water, pH 7.0, 2-8° C.): 0.14 | Percent compound detected ([2]; water, pH 7.0, 2-8° C., 5 hours): 95.1% | Percent compound detected ([2]; water, pH 7.0, 2-8° C., time point 0): 95.8% | % decomposition per hour ([2]; water, pH 7.0, room temperature): 1.1 | Percent compound detected ([2]; water, pH 7.0, room temperature, 5 hours): 90.4% | Percent compound detected ([2]; water, pH 7.0, room temperature, time point 0): 95.8%
SMILES: Nc1ncn([C@H]2CC(OP(=O)(O)OC[C@H]3O[C@@H](n4cnc5c(=O)[nH]c(N)nc54)CC3O)[C@@H](CO)O2)c(=O)n1 (stereo in doubt) [Compound I-1]
GFP Expression Level (DNA methylation; CMV-EE210 cells): g3 (>75% of viable cells) | Change in LINE-1 DNA methylation (LINE-1 DNA methylation): Decreases in LINE-1 DNA methylation

EC50 (DNA methylation; [3]): 700 nM
SMILES: Nc1ncn([C@H]2CC(O)[C@@H](COP(=O)(O)OC3C[C@H](n4cnc5c(=O)[nH]c(N)nc54)O[C@@H]3CO)O2)c(=O)n1 (some centres unmarked) [Compound I-2]
GFP Expression Level (DNA methylation; CMV-EE210 cells): g3 (>75% of viable cells)

SMILES: Nc1ncn([C@H]2C[C@H](O)[C@@H](CO)O2)c(=O)n1 [Decitabine, 5-aza-2′-deoxycytidine, reference compound]
GFP Expression Level (DNA methylation; CMV-EE210 cells): g3 (>75% of viable cells) | EC50 (DNA methylation): 500 nM
